In paper PMC7370187, “Screening of an Epigenetic Drug Library Identifies 4-((hydroxyamino)carbonyl)-N-(2-hydroxyethyl)-N-Phenyl-Benzeneacetamide that Reduces Melanin Synthesis by Inhibiting Tyrosinase Activity Independently of Epigenetic Mechanisms” (International Journal of Molecular Sciences, 2020):
Entries after “also recorded” stand apart in the source; their conditions may differ. Values belong to the molecule of their own block, whether it stands above or below them.

Tests used:
mushroom TYR = tested on: mushroom TYR; parameters: method as in earlier work; settings: ref [55] Baek et al.; read-out: IC50, catalytic activity of mushroom TYR in vitro; cited from earlier work
[1] = tested on: cellular melanin production; parameters: method as in earlier work; settings: ref [55] Baek et al.; cited from earlier work
human TYR [2] = molecular target: T1, human TYR (Homo sapiens, UniProt P14679); assay: In vitro TYR catalytic activity assay, lysate of HEK293-TYR cells; format: biochemical; settings: each drug at 1.0 μM, library screening
T1 construct: expressed in transfected cells; Triton X-100 lysate supernatant
T1 sequence (P14679 19-529): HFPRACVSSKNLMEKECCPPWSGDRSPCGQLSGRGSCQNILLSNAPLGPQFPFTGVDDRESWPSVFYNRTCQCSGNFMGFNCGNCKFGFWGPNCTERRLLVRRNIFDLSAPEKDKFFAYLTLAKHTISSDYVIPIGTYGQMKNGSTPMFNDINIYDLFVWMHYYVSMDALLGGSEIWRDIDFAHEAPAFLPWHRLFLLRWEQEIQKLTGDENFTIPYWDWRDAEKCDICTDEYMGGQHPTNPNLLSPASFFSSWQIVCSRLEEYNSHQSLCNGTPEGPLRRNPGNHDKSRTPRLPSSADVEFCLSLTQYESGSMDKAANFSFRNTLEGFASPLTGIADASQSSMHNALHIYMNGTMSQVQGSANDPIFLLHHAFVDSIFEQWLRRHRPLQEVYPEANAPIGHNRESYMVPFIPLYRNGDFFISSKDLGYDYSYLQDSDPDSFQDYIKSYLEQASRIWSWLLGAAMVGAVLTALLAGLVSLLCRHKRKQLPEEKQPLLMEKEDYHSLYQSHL
Experimental: (§1) To examine the direct effect of a drug on the catalytic activity of TYR, in vitro experiments were undertaken. Lysate of B16F10 cells stimulated with α-MSH for 24 h was used as a murine TYR preparation. Human TYR preparation was the lysate of human embryonic kidney 293 cells constitutively expressing human TYR (HEK293-TYR). […] The TYR activity assay mixture (200 μL) consisted of 100 mM sodium phosphate buffer (pH 6.8), TYR preparation (40 μg protein), a drug at various concentrations, 1.0 mM L-tyrosine, and 42 μΜ L-DOPA. For enzyme kinetic study, the concentrations of L-tyrosine plus L-DOPA were varied while their relative ratio was kept the same as the standard assay condition. […] The reactions were also performed in the absence of a TYR preparation to correct for the effects of non-enzymatic reactions. Enzyme activity was calculated as follows: activity (% control) = (C−D)/(A−B) × 100, where A and B are the absorbance changes of the control group with and without enzyme, respectively, while C and D are the absorbance changes of the test group with and without enzyme, respectively.

[3] = tested on: B16-F10 murine melanoma cells; assay: Screening assay for overall melanin synthesis (OD 400 nm) in α-MSH-stimulated cells; format: cell-based; settings: 100 nM α-MSH, 72 h; for relative melanin synthesis (OD 400 nm): drug 1.0 μM
Experimental: For the screening assay, B16-F10 cells were plated in 96-well plates (3 × 10^3 cells per well) and cultured for 24 h. The cells were then treated with a test drug at 1.0 μM for 60 min, and subsequently stimulated with 0.1 μM α-MSH for 72 h. Overall melanin synthesis was estimated by measuring the absorbance of each well (cells plus medium, without cell lysis) at 400 nm using a Spectrostar Nano microplate reader (BMG LABTECH GmbH, Ortenberg, Germany).

B16-F10 cells = assay: Cell viability assay (MTT); format: cell-based, murine; settings: 48 h; for relative viability: drug 1.0 μM
Experimental: Cell viability was evaluated using 3-(4,5-dimethylthiazol-2-yl)-2,5-diphenyltetrazolium bromide (MTT). After treatment of B16-F10 cells with each drug for 48 h, cells were washed with phosphate-buffered saline (PBS) and incubated for 2 h in the culture medium containing 1 mg∙mL^−1 MTT (Amresco, Solon, OH, USA). The medium was discarded by aspiration, the formazan dye deposited inside the cells was extracted with isopropanol, and absorbance was measured at 595 nm using a Spectrostar Nano microplate reader.

[4] = Copper chelating activity assay (pyrocatechol violet); format: physicochemical; settings: 200 μM test compound, 200 μM copper ions, 200 μM pyrocatechol violet, absorbance 632 nm
Experimental: Copper chelating activity was determined by using pyrocatechol violet (Sigma-Aldrich). […] The reaction mixture containing a potential chelator at varied concentrations, 200 μM CuSO4, and 200 μM pyrocatechol violet was incubated at 25 °C for 20 min, and its absorption spectra were recorded using a Shimadzu UV-1650PC spectrophotometer (Shimadzu Corporation, Kyoto, Japan). Copper chelating activity was evaluated by the change in the absorbance of pyrocatechol violet at 632 nm.

human TYR [5] = molecular target: T1, human TYR; parameters: method as in PMID 31382682, PMID 23476698, PMID 26914711; settings: HEK293-TYR; ref [43],[45],[47]; cited from earlier work
TYR = assay: In vitro TYR catalytic activity, murine and human TYR given together (abstract); format: biochemical; settings: range over human and murine TYR preparations
Experimental: as §1

murine TYR = molecular target: T2, murine TYR (Mus musculus, UniProt P11344); assay: In vitro TYR catalytic activity assay, lysate of α-MSH-stimulated B16F10 cells; format: biochemical; settings: murine TYR, varying substrate concentrations
T2 construct: One is the protein extract of B16F10 cells stimulated by α-MSH and thus expresses a high amount of TYR; endogenous in cells; host or cells: B16F10 murine melanoma cells stimulated with α-MSH for 24 h; Triton X-100 lysate supernatant
T2 sequence (P11344 19-533): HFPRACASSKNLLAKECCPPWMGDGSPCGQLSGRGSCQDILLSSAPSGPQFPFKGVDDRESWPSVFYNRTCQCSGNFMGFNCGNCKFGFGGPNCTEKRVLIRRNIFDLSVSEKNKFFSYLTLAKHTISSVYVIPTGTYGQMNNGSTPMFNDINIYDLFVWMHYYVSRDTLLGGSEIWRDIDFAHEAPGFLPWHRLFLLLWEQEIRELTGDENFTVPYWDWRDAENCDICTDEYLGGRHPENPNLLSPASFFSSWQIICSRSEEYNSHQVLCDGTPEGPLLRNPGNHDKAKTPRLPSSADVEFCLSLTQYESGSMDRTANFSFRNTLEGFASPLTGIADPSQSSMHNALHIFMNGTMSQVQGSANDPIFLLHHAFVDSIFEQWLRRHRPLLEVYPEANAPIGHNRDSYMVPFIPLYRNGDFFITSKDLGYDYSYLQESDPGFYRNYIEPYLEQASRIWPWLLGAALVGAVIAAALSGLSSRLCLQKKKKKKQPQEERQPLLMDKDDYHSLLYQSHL
Experimental: as §1

Structure (SMILES): O=C(NO)c1ccc(NC(=O)C23CC4CC(CC(C4)C2)C3)cc1 [1a, 4-(Adamantanecarboxamido)-N-hydroxybenzamide]
IC50 (mushroom TYR): 12 µM | IC50 [1]: 3.78 µM

Structure (SMILES): O=C(NO)c1ccc(C(=O)NC23CC4CC(CC(C4)C2)C3)cc1 [1b, N1-Adamantyl-N4-hydroxyterephthal amide]
IC50 (mushroom TYR): 8.99 µM | IC50 [1]: 7.46 µM

Structure (SMILES): COc1ccc(Cn2ccc3ccc(C(=O)NO)cc32)cc1 [A5, N-Hydroxy-1-((4-methoxyphenyl)methyl)-1H-indole-6-carboxamide]
human TYR inhibitory effect (human TYR [2]): potent TYR inhibitory effects; also recorded: showed excellent inhibitory action | relative melanin synthesis (OD 400 nm) [3]: showed no melanin inhibitory action

Structure (SMILES): COc1cc2c(NC3CCN(C(C)C)CC3)nc(C3CCCCC3)nc2cc1OCCCN1CCCC1 [C3, UNC0638]
relative viability (B16-F10 cells): showed strong cytotoxicity

Structure (SMILES): CCN(CC)Cc1ccc2cc(COC(=O)Nc3ccc(C(=O)NO)cc3)ccc2c1.Cl.O [C10, (6-((diethylamino)methyl)naphthalen-2-yl)methyl (4-(hydroxycarbamoyl)phenyl)carbamate hydrochloride hydrate]
human TYR inhibitory effect (human TYR [2]): potent TYR inhibitory effects; also recorded: showed excellent inhibitory action

human TYR inhibitory effect (human TYR [2]): potent TYR inhibitory effects
Structure (SMILES): O=C(C=Cc1cccc(C(=O)NO)c1)NO [H4, N-hydroxy-3-(3-(hydroxyamino)-3-oxo-1-propen-1-yl)-benzamide]
relative viability (B16-F10 cells): without reducing cell viability | cytotoxicity (relative viability) (B16-F10 cells; drug at various concentrations): showed toxicity at 3 μM and higher concentrations | relative melanin synthesis (OD 400 nm) [3]: markedly inhibited cellular melanin synthesis | melanin synthesis (OD 400) ([3]; drug at varied concentrations): attenuated by both drugs in a dose-dependent manner

Structure (SMILES): Cn1c(C=CC(=O)NO)ccc1C=CC(=O)c1cccc(F)c1 [M3, 3-(5-(3-(3-Fluorophenyl)-3-oxopropen-1-yl)-1-methyl-1H-pyrrol-2-yl)-N-hydroxy-2-propenamide]
human TYR inhibitory effect (human TYR [2]): potent TYR inhibitory effects; also recorded: showed excellent inhibitory action | relative melanin synthesis (OD 400 nm) [3]: showed no melanin inhibitory action

Structure (SMILES): O=c1cc(CO)occ1O [kojic acid]
copper ions chelated [4]: 36% | IC50 [1]: 2000 µM

Structure (SMILES): O=c1cc(-c2ccc(O)c(O)c2)oc2cc(OS(=O)(=O)O)cc(O)c12 [luteolin 7-sulfate]
IC50 (human TYR [5]): 8.2 µM

Structure (SMILES): O=C(O)/C=C/c1ccc(O)cc1 [p-coumaric acid]
IC50 (human TYR [5]): 4 µM

IC50 (TYR): 500 to 700 µM | inhibition type (Lineweaver–Burk plots) (murine TYR): competitive inhibition
Structure (SMILES): OC[C@H]1O[C@@H](Oc2ccc(O)cc2)[C@H](O)[C@@H](O)[C@@H]1O [β-arbutin, 4-hydroxyphenyl-β-D-glucopyranoside]
copper ions chelated [4]: did not show copper chelating activity
